Laboratory results from patent US20260015350A1, “AZAQUINAZOLINE PAN-KRAS INHIBITORS” (Mirati Therapeutics, Inc., priority 2022, published 2026).

What was measured:
KRas^G12D = molecular target: T1, KRas^G12D (Homo sapiens, UniProt P01116, G12D); assay: KRas binding assay (TR-FRET tracer displacement), KRas G12D
T1 construct: Biotinylated KRas (corresponding to amino acids 1-169, produced at Accelegan Inc.); biotin (biotinylated); purchased Accelegan Inc

KRas^G12R = molecular target: T2, KRas^G12R (Homo sapiens, UniProt P01116, G12R); assay: KRas binding assay (TR-FRET tracer displacement), KRas G12R
T2 construct: Biotinylated KRas (corresponding to amino acids 1-169, produced at Accelegan Inc.); biotin (biotinylated); purchased Accelegan Inc
T2 sequence (P01116 1-169 isoform P01116-2 G12R): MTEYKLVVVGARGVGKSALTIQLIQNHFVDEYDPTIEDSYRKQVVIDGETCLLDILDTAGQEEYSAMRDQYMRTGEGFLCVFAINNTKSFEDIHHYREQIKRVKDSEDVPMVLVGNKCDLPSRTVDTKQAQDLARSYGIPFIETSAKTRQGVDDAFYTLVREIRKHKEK

KRas^G12V = molecular target: T3, KRas^G12V (Homo sapiens, UniProt P01116, G12V); assay: KRas binding assay (TR-FRET tracer displacement), KRas G12V
T3 construct: Biotinylated KRas (corresponding to amino acids 1-169, produced at Accelegan Inc.); biotin (biotinylated); purchased Accelegan Inc
T3 sequence (P01116 1-169 isoform P01116-2 G12V): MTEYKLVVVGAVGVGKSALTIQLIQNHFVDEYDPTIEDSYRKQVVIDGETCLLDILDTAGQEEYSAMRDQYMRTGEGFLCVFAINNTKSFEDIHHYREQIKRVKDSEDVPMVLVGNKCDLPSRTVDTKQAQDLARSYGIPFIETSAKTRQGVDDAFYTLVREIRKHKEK

[1] = tested on: KRas-mediated phosphorylation of ERK in MKN1 cells; assay: Inhibition of KRas-mediated phosphorylation of ERK (Cisbio HTRF pERK), MKN1 cells; format: cell-based; conditions: Homo sapiens, MKN-1
Description: (§1) Inhibition of KRas Phosphorylation of ERK (HTRF) by Exemplary Compounds of Formula (I)
(§2) Cisbio HTRF Advanced PERK Assay Catalog #64AERPEH
(§3) Day 1: Seed 6,000 cells/well-25 μl/well in 384-well white solid bottom plate; RPM1_10% FBS. Incubate overnight at 37° C./5% CO2.
(§4) Incubate for 4 hours at room temperature covered.
(§5) Read HTRF using ClarioStar

[2] = tested on: KRas-mediated phosphorylation of ERK in PSN1 cells; assay: Inhibition of KRas-mediated phosphorylation of ERK (Cisbio HTRF pERK), PSN1 cells; format: cell-based; conditions: Homo sapiens
Description: as §1, §2, §3, §4, §5

[3] = tested on: KRas-mediated phosphorylation of ERK in AsPC-1 cells; assay: Inhibition of KRas-mediated phosphorylation of ERK (Cisbio HTRF pERK), AsPC-1 cells; format: cell-based; conditions: Homo sapiens, ASPC1, AsPC-1 cells; HTRF pERK
How it was run: (§6)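 A cell-based HTRF pERK assay: ten-point, threefold titrations beginning at 10 uM were applied for 3 hrs, with 0.2 uM Trametinib wells as the minimum control. Cells were lysed cold, and lysate was incubated with the antibody pair for 2 hrs before reading.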

[4] = tested on: KRas-mediated phosphorylation of ERK in H727 cells; assay: Inhibition of KRas-mediated phosphorylation of ERK (Cisbio HTRF pERK), H727 cells; format: cell-based; conditions: Homo sapiens, NCI-H727, H727 cells; HTRF pERK
How it was run: as §6

T1 sequence (P01116 1-169 isoform P01116-2 G12D): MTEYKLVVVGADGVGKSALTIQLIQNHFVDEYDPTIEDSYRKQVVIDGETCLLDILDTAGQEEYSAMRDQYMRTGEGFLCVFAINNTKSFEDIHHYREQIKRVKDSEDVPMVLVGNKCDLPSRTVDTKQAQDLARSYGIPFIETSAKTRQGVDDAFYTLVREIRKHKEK

Row | SMILES | IC50 (KRas^G12D) [nM] | IC50 (KRas^G12R) [nM] | IC50 (KRas^G12V) [nM] | IC50 [1] [nM] | IC50 [2] [nM] | IC50 [3] [nM] | IC50 [4] [nM]
1 | CCc1c(F)ccc2cc(O)cc(-c3ncc4c(N5CC6CCCC(C6)C5)nc(OC[C@@]56CCCN5C[C@H](F)C6)nc4c3F)c12 [Example 551, 4-(4-(3-azabicyclo[3.3.1]nonan-3-yl)-8-fluoro-2-(((2R,7aS)-2-fluorotetrahydro-1H-pyrrolizin-7a(5H)-yl)methoxy)pyrido[4,3-d]pyrimidin-7-yl)-5-ethyl-6-fluoronaphthalen-2-ol] | 127 | 27 | 32 | 1460 | > 10000 | 2500 | 814
2 | CCc1c(F)ccc2cc(O)cc(-c3ncc4c(N5C[C@@H]6OCCN[C@@H]6C5)nc(OC[C@@]56CCCN5C[C@H](F)C6)nc4c3F)c12 [Example 555, 5-ethyl-6-fluoro-4-(8-fluoro-2-(((2R,7aS)-2-fluorotetrahydro-1H-pyrrolizin-7a(5H)-yl)methoxy)-4-(hexahydropyrrolo[3,4-b][1,4]oxazin-6 (2H)-yl)pyrido[4,3-d]pyrimidin-7-yl)naphthalen-2-ol] | 2030 | 2030 | 512 | 4020 | > 10000 | > 10000 | > 10000
3 | CCc1c(F)ccc2cc(O)cc(-c3ncc4c(N5CCCn6cnnc6C5)nc(OC[C@@]56CCCN5C[C@H](F)C6)nc4c3F)c12 [Example 563, 4-(4-(6,7-dihydro-5H-[1,2,4]triazolo[4,3-a][1,4]diazepin-8 (9H)-yl)-8-fluoro-2-(((2R,7aS)-2-fluorotetrahydro-1H-pyrrolizin-7a(5H)-yl)methoxy)pyrido[4,3-d]pyrimidin-7-yl)-5-ethyl-6-fluoronaphthalen-2-ol] | 85 | 238 | 100 | > 10000 | > 10000 | > 10000 | > 10000
4 | CCc1c(F)ccc2cc(O)cc(-c3ncc4c(N5CCCC6(CCCCO6)C5)nc(OC[C@@]56CCCN5C[C@H](F)C6)nc4c3F)c12 (stereo partly drawn) [Example 594, 5-ethyl-6-fluoro-4-(8-fluoro-2-(((2R,7aS)-2-fluorotetrahydro-1H-pyrrolizin-7a(5H)-yl)methoxy)-4-(1-oxa-8-azaspiro[5.5]undecan-8-yl)pyrido[4,3-d]pyrimidin-7-yl)naphthalen-2-ol] | 91 | 53 | 80 | 2350 | > 10000 | 2810 | 2290
5 | CCc1c(F)ccc2cc(O)cc(-c3ncc4c(N5CCC(c6ccc(=O)[nH]n6)C5)nc(OC[C@@]56CCCN5C[C@H](F)C6)nc4c3F)c12 (stereo partly drawn) [Example 608, 6-(1-(7-(8-ethyl-7-fluoro-3-hydroxynaphthalen-1-yl)-8-fluoro-2-(((2R,7aS)-2-fluorotetrahydro-1H-pyrrolizin-7a(5H)-yl)methoxy)pyrido[4,3-d]pyrimidin-4-yl)pyrrolidin-3-yl)pyridazin-3 (2H)-one] | 1250 | 267 | 88 | > 10000 | > 10000 | > 10000 | > 10000
6 | CCc1c(F)ccc2cc(O)cc(-c3ncc4c(N5CCC(N6C(=O)CCC6=O)C5)nc(OC[C@@]56CCCN5C[C@H](F)C6)nc4c3F)c12 (stereo partly drawn) [Example 615, 1′-(7-(8-ethyl-7-fluoro-3-hydroxynaphthalen-1-yl)-8-fluoro-2-(((2R,7aS)-2-fluorotetrahydro-1H-pyrrolizin-7a(5H)-yl)methoxy)pyrido[4,3-d]pyrimidin-4-yl)-[1,3′-bipyrrolidine]-2,5-dione] | 1990 | 421 | 222 | 1530 | > 10000 | 7210 | > 10000
7 | CCc1c(F)ccc2cc(O)cc(-c3ncc4c(N5CCCCC(S(N)(=O)=O)C5)nc(OC[C@@]56CCCN5C[C@H](F)C6)nc4c3F)c12 (stereo partly drawn) [Example 633, 1-(7-(8-ethyl-7-fluoro-3-hydroxynaphthalen-1-yl)-8-fluoro-2-(((2R,7aS)-2-fluorohexahydro-1H-pyrrolizin-7a-yl)methoxy)pyrido[4,3-d]pyrimidin-4-yl)azepane-3-sulfonamide] | 8850 | 6610 | 2820 | > 10000 | > 10000 | > 10000 | > 10000

Further lines, results first:

Row | IC50 (KRas^G12D) [nM] | IC50 (KRas^G12R) [nM] | IC50 (KRas^G12V) [nM] | IC50 [1] [nM] | IC50 [2] [nM] | IC50 [3] [nM] | IC50 [4] [nM] | SMILES
8 | 25 | 27 | 7 | 417 | > 10000 | > 10000 | > 10000 | CCc1c(F)ccc2cc(O)cc(-c3ncc4c(NCC5CC(CO)NC5=O)nc(OC[C@@]56CCCN5C[C@H](F)C6)nc4c3F)c12 (stereo partly drawn) [Example 575, 3-(((7-(8-ethyl-7-fluoro-3-hydroxynaphthalen-1-yl)-8-fluoro-2-(((2R,7aS)-2-fluorotetrahydro-1H-pyrrolizin-7a(5H)-yl)methoxy)pyrido[4,3-d]pyrimidin-4-yl)amino)methyl)-5-(hydroxymethyl)pyrrolidin-2-one]
9 | 296 | 30 | 81 | 476 | > 10000 | > 10000 | > 10000 | CCc1c(F)ccc2cc(O)cc(-c3ncc4c(N5CCC(S(C)(=N)=O)C5)nc(OC[C@@]56CCCN5C[C@H](F)C6)nc4c3F)c12 (stereo partly drawn) [Example 580, 5-ethyl-6-fluoro-4-(8-fluoro-2-(((2R,7aS)-2-fluorohexahydro-1H-pyrrolizin-7a-yl)methoxy) 4-(3-(S-methylsulfonimidoyl)pyrrolidin-1-yl)pyrido[4,3-d]pyrimidin-7-yl)naphthalen-2-ol]
10 | 33 | 3 | 14 | 312 | > 10000 | 5380 | 2500 | CCc1c(F)ccc2cc(O)cc(-c3ncc4c(N5CCCS(=O)(=O)CC5)nc(OC[C@@]56CCCN5C[C@H](F)C6)nc4c3F)c12 [Example 583, 4-(7-(8-ethyl-7-fluoro-3-hydroxynaphthalen-1-yl)-8-fluoro-2-(((2R,7aS)-2-fluorohexahydro-1H-pyrrolizin-7a-yl)methoxy)pyrido[4,3-d]pyrimidin-4-yl)-1,4-thiazepane 1,1-dioxide]
11 | 790 | 281 | 119 | > 10000 | > 10000 | > 10000 | > 10000 | CCc1c(F)ccc2cc(O)cc(-c3ncc4c(N5CCC6CNC(=O)NC6C5)nc(OC[C@@]56CCCN5C[C@H](F)C6)nc4c3F)c12 (stereo partly drawn) [Example 592, 7-(7-(8-ethyl-7-fluoro-3-hydroxynaphthalen-1-yl)-8-fluoro-2-(((2R,7aS)-2-fluorohexahydro-1H-pyrrolizin-7a-yl)methoxy)pyrido[4,3-d]pyrimidin-4-yl)octahydropyrido[3,4-d]pyrimidin-2(1H)-one]
12 | < 2 | < 2 | < 2 | 92 | > 10000 | 1390 | 880 | CCc1c(F)ccc2cc(O)cc(-c3ncc4c(NCC5(C)CNS(=O)(=O)N5)nc(OC[C@@]56CCCN5C[C@H](F)C6)nc4c3F)c12 (stereo partly drawn) [Example 609, 3-(((7-(8-ethyl-7-fluoro-3-hydroxynaphthalen-1-yl)-8-fluoro-2-(((2R,7aS)-2-fluorohexahydro-1H-pyrrolizin-7a-yl)methoxy)pyrido[4,3-d]pyrimidin-4-yl)amino)methyl)-3-methyl-1,2,5-thiadiazolidine 1,1-dioxide]
